Measured values as given in ChEMBL document CHEMBL2073918, “Effect of modulators on the ATPase activity and vanadate nucleotide trapping of human P-glycoprotein” (Biochem Pharmacol, 1998).

Legend:
[1] = target: T1, ATP-dependent translocase ABCB1 (Homo sapiens, UniProt P08183); assay: TP_TRANSPORTER: ATP hydrolysis in membranes from CEM/VLB100 cells; assay type: functional, cell membranes, Membrane
[2] = target: T1, ATP-dependent translocase ABCB1; assay: TP_TRANSPORTER: inhibition of ATPase activity (Verapamil) in membranes from CEM/VLB100 cells; assay type: functional, cell membranes, Membrane

T1 sequence (P08183 whole entry): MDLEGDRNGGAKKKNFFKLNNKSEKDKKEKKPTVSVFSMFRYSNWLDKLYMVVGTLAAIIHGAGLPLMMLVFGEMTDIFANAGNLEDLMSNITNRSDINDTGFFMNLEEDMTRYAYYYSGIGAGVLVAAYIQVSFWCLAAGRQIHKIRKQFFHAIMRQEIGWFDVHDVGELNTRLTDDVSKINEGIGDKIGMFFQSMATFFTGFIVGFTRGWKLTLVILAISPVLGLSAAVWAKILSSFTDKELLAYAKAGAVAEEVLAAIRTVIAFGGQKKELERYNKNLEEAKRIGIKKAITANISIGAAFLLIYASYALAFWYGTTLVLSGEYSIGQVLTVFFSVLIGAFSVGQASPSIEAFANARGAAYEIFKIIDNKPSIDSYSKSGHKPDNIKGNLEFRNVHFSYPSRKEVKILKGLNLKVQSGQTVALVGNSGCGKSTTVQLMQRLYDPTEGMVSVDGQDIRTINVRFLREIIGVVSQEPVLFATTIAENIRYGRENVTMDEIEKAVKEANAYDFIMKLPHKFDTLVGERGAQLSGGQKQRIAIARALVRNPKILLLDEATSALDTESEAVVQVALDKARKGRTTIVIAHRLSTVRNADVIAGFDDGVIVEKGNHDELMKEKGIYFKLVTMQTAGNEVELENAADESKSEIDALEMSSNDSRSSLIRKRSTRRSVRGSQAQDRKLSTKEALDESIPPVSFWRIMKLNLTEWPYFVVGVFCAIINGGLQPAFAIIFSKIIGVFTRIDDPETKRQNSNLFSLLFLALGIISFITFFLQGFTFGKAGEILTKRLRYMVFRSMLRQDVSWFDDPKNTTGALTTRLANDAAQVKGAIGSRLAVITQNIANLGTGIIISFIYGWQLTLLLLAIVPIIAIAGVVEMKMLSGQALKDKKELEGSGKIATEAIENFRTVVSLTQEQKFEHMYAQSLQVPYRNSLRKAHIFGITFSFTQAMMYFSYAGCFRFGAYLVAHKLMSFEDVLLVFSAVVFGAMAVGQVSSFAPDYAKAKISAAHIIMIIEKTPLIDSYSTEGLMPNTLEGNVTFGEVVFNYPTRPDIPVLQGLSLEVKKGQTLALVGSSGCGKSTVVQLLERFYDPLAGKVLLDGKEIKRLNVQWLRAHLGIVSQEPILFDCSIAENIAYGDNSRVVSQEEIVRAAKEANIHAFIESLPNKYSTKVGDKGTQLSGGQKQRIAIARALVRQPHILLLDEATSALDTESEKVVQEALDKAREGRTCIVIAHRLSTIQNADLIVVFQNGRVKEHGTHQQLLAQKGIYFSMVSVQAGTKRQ

Row | Structure (SMILES) | Activity [1] | Ki [2] [µM]
1 | CCC12C=CCN3CC[C@@]4(c5ccc(OC)cc5N(C)[C@H]4[C@@](O)(C(=O)OC)[C@@H]1OC(C)=O)[C@@H]32 (some centres not stated) [VINDOLINE] | is not a substrate [-] | 
2 | COC(=O)[C@@H]1C2CC3c4[nH]c5ccccc5c4CCN3CC2CC[C@@H]1OC(=O)c1cc(OC)c(OC)c(OC)c1 (some centres not stated) [TRIMETHOXYBENZOYLYOHIMBINE] |  | 2.1
